Experimental data as given in US20080171737A1 (Wyeth, priority 2006, published 2008).
Where a name gives a salt, the structure may show the parent alone.

The molecules below were run against T1, human hNET (Homo sapiens, UniProt P23975) (assay: Functional norepinephrine reuptake assay, Procedure B (6,000 cells/well)). Settings: MDCK-Net6 cells, 6,000 cells/well, 16 nM 3H-norepinephrine; read-out: Procedure B hNET uptake IC50.
T1 construct: expressed in transfected cells; host or cells: MDCK-Net6 (MDCK cells stably transfected with hNET)
Type: cell-based
Experimental: For screening, 25 μl aliquots of compound solution at a 1 μM or 10 μM final concentration was delivered directly to cells.
For IC50 determinations, stock compounds were prepared at 10 mM from powder. The stock solution was diluted according to compound testing range. […] On the day of assay, 25 μl of compound solution at the specified concentrations were added to the plates containing cells. A DMSO stock of desipramine was prepared at 10 mM in DMSO and diluted for a final concentration of 20 μM to determine the non-specific reuptake.
MDCK-Net6 cells, stably transfected with human hNET (Pacholczyk, 1991), were maintained in growth media [high glucose DMEM (Gibco Cat. 11995), 10% FBS (dialyzed, heat-inactivated, Sigma, dialysed, heat inactivated, Lot# K0922 or equivalent) 1xPen/Strep, and 500 μg/ml G418 (Gibco Cat. 10131)]. Cells were plated at 300,000/T75 flask and cells split twice weekly.
Cells were plated at 50,000 cells/well (Procedure A) or 6,000 cells/well (Procedure B) on day 1 in BD Falcon Microtest 96-well sterile cell culture plates, Optilux White/Clear Bottom TC plate (VWR; # 62406-466 or equivalent) in growth media and maintained in a cell incubator (37° C., 5% CO2). On Day 2, cells were removed from the cell incubator and the growth media is replaced by 200 μl of assay buffer (25 mm HEPES 120 mM NaCL; 5 mM KCl; 2.5 mM CaCl2; 1.2 mM MgSO4; 2 mg/ml glucose (pH 7.4, 37° C.)) containing 0.2 mg/ml ascorbic acid and 1 μM parglyine. For screening, 25 μl of compound in 4% DMSO was added directly to each well and the plate was incubated for 5 minutes (37° C.). […] The reaction is aspirated from the plate and the cells washed with 250 μl of 50 mM Tris Buffer (4° C.). The plates were left to dry for 1 hour. The cells were lysed using 0.25 M NaOH solution then placed on a shake table and vigorously shaken for 10 minutes. After cell lysis, 100 μl of Microscint 20 (PerkinElmer; #87-051101) was added to the plates and the plates were sealed with film tape and replaced on the shake table for a minimum of 10 minutes. The plates were counted in a TopCount counter (PerkinElmer).
% inhibition=[1−((mean cpm test compound wells−mean cpm non-specific wells)/(mean cpm control wells−mean cpm non-specific wells))]×100
For IC50 determination, raw cpm values were generated in a data file from the TopCount counter. The data was organized using the Microsoft Excel and transferred into PRIZM graphing and statistical program, which calculated the estimated IC50 value. Calculation of IC50 values was made using non-linear regression analysis with a sigmoidal dose response with variable slope. The statistical program used wells containing ^3H norepinephrine only as the maximal NE reuptake determinant and wells containing ^3H norepinephrine plus 20 μM desipramine (AHR-9543) as the minimal NE reuptake determinant (non-specific determinant). Estimation of the IC50 value was completed on a log scale and the line was fit between the maximal and minimal NE reuptake values.

T1 sequence (P23975 whole entry): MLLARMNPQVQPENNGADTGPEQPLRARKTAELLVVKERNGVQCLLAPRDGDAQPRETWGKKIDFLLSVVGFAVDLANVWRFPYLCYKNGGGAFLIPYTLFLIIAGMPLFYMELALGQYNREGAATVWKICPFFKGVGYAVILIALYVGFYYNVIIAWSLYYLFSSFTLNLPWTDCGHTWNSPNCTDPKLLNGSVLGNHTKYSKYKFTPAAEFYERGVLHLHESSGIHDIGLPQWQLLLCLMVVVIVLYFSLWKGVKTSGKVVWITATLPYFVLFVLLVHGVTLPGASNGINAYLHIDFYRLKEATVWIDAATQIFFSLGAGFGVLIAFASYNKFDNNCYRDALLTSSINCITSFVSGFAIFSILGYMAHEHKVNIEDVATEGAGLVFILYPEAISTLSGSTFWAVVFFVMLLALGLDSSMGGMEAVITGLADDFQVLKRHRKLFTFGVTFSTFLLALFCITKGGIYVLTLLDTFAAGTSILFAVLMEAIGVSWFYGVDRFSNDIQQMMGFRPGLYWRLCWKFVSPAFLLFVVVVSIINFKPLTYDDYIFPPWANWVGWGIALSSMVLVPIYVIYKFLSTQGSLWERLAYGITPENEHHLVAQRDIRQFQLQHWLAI

SMILES | IC50
CNCCC1Oc2ccccc2N(c2ccccc2)S1(=O)=O (stereo not shown) [Example 25, 2-(2,2-dioxido-1-phenyl-1H-4,2,1-benzoxathiazin-3-yl)-N-methylethanamine] | 162 nM
CN(C)CCC1Oc2ccccc2N(c2ccccc2)S1(=O)=O (stereo not shown) [Example 26, 2-(2,2-dioxido-1-phenyl-1H-4,2,1-benzoxathiazin-3-yl)-N,N-dimethylethanamine] | 97.1 nM
CCCNCCC1Oc2ccccc2N(c2ccccc2)S1(=O)=O (stereo not shown) [Example 27, N-[2-(2,2-dioxido-1-phenyl-1H-4,2,1-benzoxathiazin-3-yl)ethyl]propan-1-amine] | 4410 nM
CC(C)CNCCC1Oc2ccccc2N(c2ccccc2)S1(=O)=O (stereo not shown) [Example 28, N-[2-(2,2-dioxido-1-phenyl-1H-4,2,1-benzoxathiazin-3-yl)ethyl]-2-methylpropan-1-amine] | 1760 nM
O=S1(=O)C(CCN2CCCC2)Oc2ccccc2N1c1ccccc1 (stereo not shown) [Example 29, 1-phenyl-3-(2-pyrrolidin-1-ylethyl)-1H-4,2,1-benzoxathiazine 2,2-dioxide] | 1640 nM
CCCCNCCC1Oc2ccccc2N(c2ccccc2)S1(=O)=O (stereo not shown) [Example 31, N-[2-(2,2-dioxido-1-phenyl-1H-4,2,1-benzoxathiazin-3-yl)ethyl]butan-1-amine] | 1660 nM
NCCCC1Oc2ccccc2N(c2ccccc2)S1(=O)=O (stereo not shown) [Example 33, 3-(2,2-dioxido-1-phenyl-1H-4,2,1-benzoxathiazin-3-yl)propan-1-amine] | 597 nM
CCNCCCC1Oc2ccccc2N(c2ccccc2)S1(=O)=O (stereo not shown) [Example 34, 3-(2,2-dioxido-1-phenyl-1H-4,2,1-benzoxathiazin-3-yl)-N-ethylpropan-1-amine] | 2580 nM
CCCNCCCC1Oc2ccccc2N(c2ccccc2)S1(=O)=O (stereo not shown) [Example 35, 3-(2,2-dioxido-1-phenyl-1H-4,2,1-benzoxathiazin-3-yl)-N-propylpropan-1-amine] | 5100 nM
O=S1(=O)C(CCCNC2CC2)Oc2ccccc2N1c1ccccc1 (stereo not shown) [Example 40, N-[3-(2,2-dioxido-1-phenyl-1H-4,2,1-benzoxathiazin-3-yl)propyl]cyclopropanamine] | 1080 nM
CNCCCC1Oc2ccc(F)cc2N(c2ccccc2)S1(=O)=O (stereo not shown) [Example 44, 3-(7-fluoro-2,2-dioxido-1-phenyl-1H-4,2,1-benzoxathiazin-3-yl)-N-methylpropan-1-amine] | 875 nM
CNCCCC1Oc2cc(Cl)ccc2N(c2ccccc2)S1(=O)=O (stereo not shown) [Example 45, 3-(6-chloro-2,2-dioxido-1-phenyl-1H-4,2,1-benzoxathiazin-3-yl)-N-methylpropan-1-amine] | 114 nM
CNCCCC1Oc2cc(F)ccc2N(c2ccccc2)S1(=O)=O (stereo not shown) [Example 46, 3-(6-fluoro-2,2-dioxido-1-phenyl-1H-4,2,1-benzoxathiazin-3-yl)-N-methylpropan-1-amine] | 92.7 nM
CNCCCC1Oc2c(F)cccc2N(c2ccccc2)S1(=O)=O (stereo not shown) [Example 47, 3-(5-fluoro-2,2-dioxido-1-phenyl-1H-4,2,1-benzoxathiazin-3-yl)-N-methylpropan-1-amine] | 431 nM
CNCCCC1Oc2cccc(F)c2N(c2ccccc2)S1(=O)=O (stereo not shown) [Example 48, 3-(8-fluoro-2,2-dioxido-1-phenyl-1H-4,2,1-benzoxathiazin-3-yl)-N-methylpropan-1-amine] | 636 nM
CNCCCC1Oc2cccc(C)c2N(c2ccccc2)S1(=O)=O (stereo not shown) [Example 49, N-methyl-3-(8-methyl-2,2-dioxido-1-phenyl-1H-4,2,1-benzoxathiazin-3-yl)propan-1-amine] | 900 nM
CNCCCC1Oc2ccc(C)cc2N(c2ccccc2)S1(=O)=O (stereo not shown) [Example 50, N-methyl-3-(7-methyl-2,2-dioxido-1-phenyl-1H-4,2,1-benzoxathiazin-3-yl)propan-1-amine] | 114 nM
CNCCCC1Oc2cc(C)ccc2N(c2ccccc2)S1(=O)=O (stereo not shown) [Example 51, N-methyl-3-(6-methyl-2,2-dioxido-1-phenyl-1H-4,2,1-benzoxathiazin-3-yl)propan-1-amine] | 249 nM
CNCCCC1Oc2cc(OC)ccc2N(c2ccccc2)S1(=O)=O (stereo not shown) [Example 52, 3-(6-methoxy-2,2-dioxido-1-phenyl-1H-4,2,1-benzoxathiazin-3-yl)-N-methylpropan-1-amine] | 607 nM
CNCCCC1Oc2ccc(Cl)cc2N(c2ccccc2)S1(=O)=O (stereo not shown) [Example 53, 3-(7-chloro-2,2-dioxido-1-phenyl-1H-4,2,1-benzoxathiazin-3-yl)-N-methylpropan-1-amine] | 187 nM
CNCCCC1Oc2ccc(-c3ccccc3)cc2N(c2ccccc2)S1(=O)=O (stereo not shown) [Example 54, 3-(2,2-dioxido-1,7-diphenyl-1H-4,2,1-benzoxathiazin-3-yl)-N-methylpropan-1-amine] | 407 nM
CNCCCC1Oc2cc3ccccc3cc2N(c2ccccc2)S1(=O)=O (stereo not shown) [Example 55, 3-(2,2-dioxido-1-phenyl-1H-naphtho[2,3-e][1,3,4]oxathiazin-3-yl)-N-methylpropan-1-amine hydrochloride] | 47.8 nM
CNCCCC1Oc2ccccc2N(c2cccnc2)S1(=O)=O (stereo not shown) [Example 56, 3-(2,2-dioxido-1-pyridin-3-yl-1H-4,2,1-benzoxathiazin-3-yl)-N-methylpropan-1-amine] | 345 nM
CN(CCCC1Oc2ccccc2N(c2ccccc2)S1(=O)=O)Cc1ccccc1 (stereo not shown) [Example 58, N-benzyl-3-(2,2-dioxido-1-phenyl-1H-4,2,1-benzoxathiazin-3-yl)-N-methylpropan-1-amine hydrochloride] | 822 nM

Same assay, conditions: MDCK-Net6 cells, 6,000 cells/well; Conc 6000 nM (6 μM); read-out: Procedure B hNET uptake (% inhibition)

SMILES | inhibition at 6 µM
CN1CCN(CCC2Oc3ccccc3N(c3ccccc3)S2(=O)=O)CC1 (stereo not shown) [Example 30, 3-[2-(4-methylpiperazin-1-yl)ethyl]-1-phenyl-1H-4,2,1-benzoxathiazine 2,2-dioxide] | 35%
O=S1(=O)C(CCNC2CCC2)Oc2ccccc2N1c1ccccc1 (stereo not shown) [Example 32, N-[2-(2,2-dioxido-1-phenyl-1H-4,2,1-benzoxathiazin-3-yl)ethyl]cyclobutanamine] | 54%
CCCCNCCCC1Oc2ccccc2N(c2ccccc2)S1(=O)=O (stereo not shown) [Example 36, N-[3-(2,2-dioxido-1-phenyl-1H-4,2,1-benzoxathiazin-3-yl)propyl]butan-1-amine] | 57%
CC(C)NCCCC1Oc2ccccc2N(c2ccccc2)S1(=O)=O (stereo not shown) [Example 37, 3-(2,2-dioxido-1-phenyl-1H-4,2,1-benzoxathiazin-3-yl)-N-isopropylpropan-1-amine] | 15%
CC(C)CNCCCC1Oc2ccccc2N(c2ccccc2)S1(=O)=O (stereo not shown) [Example 38, N-[3-(2,2-dioxido-1-phenyl-1H-4,2,1-benzoxathiazin-3-yl)propyl]-2-methylpropan-1-amine] | 63%
O=S1(=O)C(CCCNCCCO)Oc2ccccc2N1c1ccccc1 (stereo not shown) [Example 39, 3-{[3-(2,2-dioxido-1-phenyl-1H-4,2,1-benzoxathiazin-3-yl)propyl]amino}propan-1-ol] | 32%
O=S1(=O)C(CCCNC2CCC2)Oc2ccccc2N1c1ccccc1 (stereo not shown) [Example 41, N-[3-(2,2-dioxido-1-phenyl-1H-4,2,1-benzoxathiazin-3-yl)propyl]cyclobutanamine] | 50%
O=S1(=O)C(CCCNC2CCCC2)Oc2ccccc2N1c1ccccc1 (stereo not shown) [Example 42, N-[3-(2,2-dioxido-1-phenyl-1H-4,2,1-benzoxathiazin-3-yl)propyl]cyclopentanamine] | 48%
O=S1(=O)C(CCCNC2CCCCC2)Oc2ccccc2N1c1ccccc1 (stereo not shown) [Example 43, N-[3-(2,2-dioxido-1-phenyl-1H-4,2,1-benzoxathiazin-3-yl)propyl]cyclohexanamine] | 67%
CNCCCC1Oc2ccccc2N(c2cnc3ccccc3c2)S1(=O)=O (stereo not shown) [Example 57, 3-(2,2-dioxido-1-quinolin-3-yl-1H-4,2,1-benzoxathiazin-3-yl)-N-methylpropan-1-amine] | 41%
